In US10238645B2 (priority 2009, dated 2019):
Like-named read-outs stand apart in the source and are kept apart here.

Legend:
[1] = Open label pharmacokinetic study GW01-0804: serum pharmacokinetics; conditions: for Geometric LS Mean, Reference (trough serum concentration) / Geometric LS Mean, Test (trough serum concentration): Primary steady-state analysis
Description: Subjects stayed at the study center overnight during the treatment initiation visit (Day 1, first evening application) and the end-of-treatment visit (Day 21, last evening application). […] In addition, serum PK samples were collected in the evening prior to application on Days 7 and 14 to determine trough concentrations for steady-state analysis.
In addition, single blood draws for PK analysis of trough concentrations to determine steady state were obtained on Day 7 and Day 14 (in the evening prior to application). Blood samples could be obtained within ±5 minutes of the target sampling time.
Pharmacokinetic variables will be calculated from the serum concentration data using standard, non-compartmental methods.

[2] = system: rabbit left ventricular wedge preparation; experiment: Arterially perfused rabbit left ventricular wedge preparation (QT, QRS, Tp-e, arrhythmogenesis)
Description: New Zealand White rabbits, either sex weighing 2.3-2.8 kg were anticoagulated with heparin and anesthetized with ketamine/xylazine (40-50 mg/0.5-1.0 mg, per kg, i.v.). The chest was opened via a left thoracotomy, and the heart was excised and placed in a cardioplegic solution consisting of cold (4° C.) normal Tyrode's solution. Transmural wedges with dimensions of approximately 1.5 cm wide and 2-3 cm long were dissected from the left ventricle as described before (Liu et al, Heart Rhythm 2006; 3:948-956). The tissue was cannulated via a small branch of the left anterior descending artery and perfused with cardioplegic solution. […] The ventricular wedge was allowed to equilibrate in the tissue bath until electrically stable for one hour. The preparations were stimulated at basic cycle lengths (BCL) of 1000 and 2000 ms using bipolar silver electrodes insulated except at the tips and applied to the endocardial surface.
The QT interval was defined as the time from the onset of the QRS to the point at which the final downslope of the T wave crosses the isoelectric line. Transmembrane action potential from the endocardium (Endo) was recorded for identification of EADs only when QT prolongation >30% via a customer-made amplifier. Transmural dispersion of repolarization (TDR) was defined as the interval between the end and the peak of T wave (Tp-e).
The ratio of Tp-e to QT was calculated. • (6) Arrhythmic phenomena, including spontaneous R-on-T ectopic beats and TdP, were recorded if they occurred. 3.5 To Estimate Relative TdP Risk
The relative TdP risk of each compound was estimated according in which the Tp-e/QT ratio and […] phenomena were emphasized.
Results were presented as mean±SEM. Statistical analysis was performed using the Student's t-test. A p<0.05 is considered as statistically significant when compared the values at control perfusion.

[3] = Systemic embryofetal development study, oral; assay type: in vivo; conditions: rats
Description: (§1) Note: The animal multiples of human exposure calculations were based on daily dose comparisons in this label.
Systemic embryofetal development studies were conducted in rats and rabbits.

[4] = Multiple oral imiquimod doses (overdosage); assay type: in vivo, human; conditions: multiple oral doses of >200 mg
[5] = Acute dermal toxicity study under occlusion; assay type: in vivo, rabbits
[6] = Systemic embryofetal development study, intravenous; assay type: in vivo; conditions: rabbits
Description: as §1

[7] = 52-week dermal photo-carcinogenicity study; assay type: in vivo; conditions: hairless mice, imiquimod added to the vehicle cream
Description: The enhancement of ultraviolet carcinogenicity is not necessarily dependent on phototoxic mechanisms. Therefore, patients should minimize or avoid natural or artificial sunlight exposure to the affected areas.
In a 52-week dermal photo-carcinogenicity study, the median time to onset of skin tumor formation was decreased in hairless mice following chronic topical dosing (3×/week; 40 weeks of treatment followed by 12 weeks of observation) with concurrent exposure to UV radiation (5 days per week) with vehicle alone.

[8] = rats, oral
Description: A combined fertility and peri- and post-natal development study was conducted in rats.

[9] = Single dose (oral, intraperitoneal, subcutaneous, intravenous) and repeat dose toxicity studies; conditions: for LD50: in vivo
[10] = Genotoxicity tests (five in vitro, three in vivo); conditions: five in vitro and three in vivo genotoxicity tests
[11] = Oral (gavage) carcinogenicity study, 24 months; assay type: in vivo; conditions: Wistar rats, up to 6 mg/kg 2×/week females (50×MRHD), 4 mg/kg 2×/week males (40×MRHD), 3 mg/kg 7×/week (25×MRHD)

## CC(C)Cn1cnc2c(N)nc3ccccc3c21 [Imiquimod (R-837)]
[1]; both, human, in vivo
  AUC(0-inf): 5.35 ng·h/mL
[1]; both, human, in vivo, AUC0-24, Mean, serum, Day 1
  AUC(0-t): 3.75 ng·h/mL
[1]; both, human, in vivo, AUC0-24, Mean, serum, Day 21
  AUC(0-t): 6.79 ng·h/mL
[1]; both, human, in vivo, AUC0-t, Mean, serum, Day 1
  AUC(0-t): 3.12 ng·h/mL
[1]; both, human, in vivo, T1/2, Mean, serum, Day 1
  half-life: 12.4 h
[1]; both, human, in vivo, T1/2, Mean, serum, Day 21
  half-life: 24.1 h
[1]; both, human, in vivo, T1/2 EFF, Mean, serum, Day 21
  half-life: 31.3 h
[1]; serum, Day 1
  λz, Mean: 0.0756 h⁻¹
[1]; serum, Day 21
  λz EFF, Mean: 0.0380 h⁻¹
  λz, Mean: 0.0370 h⁻¹

## COc1cc(N)c(Cl)cc1C(=O)NC1CCN(CCCOc2ccc(F)cc2)CC1OC (stereo not shown) [cisapride]
[2]
  Effect on Tp-e interval: marked concentration-dependent Tp-e prolongation
[2]; both, New Zealand White, rabbit, 0.5 uM
  Equivocal EAD (preparations): 1 of 4

## CC(C)Cn1cnc2c(N)nc3ccccc3c21 [imiquimod, 1-(2-methylpropyl)-1H-imidazo[4,5-c]quinolin-4-amine]
[3]; 5 mg/kg/day (73×MRHD based on AUC)
  Embryofetal toxicity or teratogenicity: No treatment related effects
[3]; 20 mg/kg/day (375×MRHD based on AUC), in the presence of maternal toxicity
  Fetal effects: increased resorptions, decreased fetal body weights, delays in skeletal ossification, bent limb bones
[4]
  Most clinically serious adverse event: hypotension
[5]; Rabbit, Dermal
  LD50: >5000 mg/kg
[5]; rabbits, under occlusion, 5000 mg/kg
  Acute dermal toxicity: did not reveal any toxic effects
[6]; 1 mg/kg/day (234×MRHD based on AUC)
  Embryofetal toxicity or teratogenicity: No treatment related effects
[6]; 2 mg/kg/day (2.1×MRHD based on BSA)
  Embryofetal toxicity or teratogenicity: No treatment related effects
[7]
  Tumor development with UV radiation: No additional effect on tumor development beyond the vehicle effect
[8]; 3 mg/kg/day (24×MRHD based on AUC)
  Teratogenicity: No treatment related effects
[8]; 6 mg/kg/day (50×MRHD), absence of maternal toxicity
  Finding in F1 fetuses: bent limb bones
[9]; lower repeat doses (100 mg/kg or lower)
  Signs of CNS toxicity: did not occur
[9]; monkey, iv, LD50, Monkey, intravenous bolus
  LD50: > 6 mg/kg
[9]; monkey, iv, LD50, Monkey, intravenous infusion
  LD50: ~8 mg/kg
[9]; monkey, po, LD50, Monkey
  LD50: > 200 mg/kg
[9]; mouse, ip, LD50, Mouse, Intraperitoneal
  LD50: 879 mg/kg
[9]; mouse, po, LD50, Mouse
  LD50: 403 mg/kg
[9]; oral, intraperitoneal, subcutaneous or intravenous, lethal doses
  Single dose toxicity: central nervous system (CNS) stimulation and convulsions
[9]; rat, ip, LD50, Rat, Intraperitoneal
  LD50: 763 mg/kg
[9]; rat, po, LD50, Rat
  LD50: 1660 mg/kg
[9]; rat, sc, LD50, Rat, Subcutaneous
  LD50: ~20 mg/kg
[1]; Day 14 vs. Day 7, N 13
  Geometric LS Mean, Reference (trough serum concentration): 0.1543
  Geometric LS Mean, Test (trough serum concentration): 0.1749
[1]; Day 21 vs. Day 14, N 11
  Geometric LS Mean, Reference (trough serum concentration): 0.1874
  Geometric LS Mean, Test (trough serum concentration): 0.1571
[1]; Day 22 vs. Day 21, N 12
  Geometric LS Mean, Reference (trough serum concentration): 0.1643
  Geometric LS Mean, Test (trough serum concentration): 0.1839
[1]; both, human, in vivo, Geometric LS Mean, Reference (trough serum concentration), Secondary steady-state analysis (BLQ replaced with LLOQ/2), Day 14 vs. Day 7, N 17
  concentration at 7 day (trough, evening prior to application): 0.127 ng/mL
[1]; both, human, in vivo, Geometric LS Mean, Reference (trough serum concentration), Secondary steady-state analysis (BLQ replaced with LLOQ/2), Day 21 vs. Day 14, N 15
  concentration at 14 day (trough, evening prior to application): 0.115 ng/mL
[1]; both, human, in vivo, Geometric LS Mean, Test (trough serum concentration), Secondary steady-state analysis (BLQ replaced with LLOQ/2), Day 14 vs. Day 7, N 17
  concentration at 14 day (trough, evening prior to application): 0.126 ng/mL
[1]; both, human, in vivo, Geometric LS Mean, Test (trough serum concentration), Secondary steady-state analysis (BLQ replaced with LLOQ/2), Day 22 vs. Day 21, N 15
  concentration at 22 day (trough, 24 h after the Day 21 application): 0.156 ng/mL
[10]
  Mutagenic or clastogenic potential: no evidence of mutagenic or clastogenic potential
[11]
  Tumors in oral carcinogenicity study: No treatment related tumors
[2]; 150 nM, BCL of 2000 ms, comparable to DMSO vehicle
  QT increase: 4%
[2]; any preparation at any concentration
  Proarrhythmic events: did not cause any proarrhythmic events
[2]; concentration range tested
  Effect on QT interval: does not have a significant effect
  Effect on Tp-e interval: no significant effect
[2]; imiquimod 0.5-150 nM, cisapride at 0.5 uM
  Effect on QRS duration: no significant effect
